In PMC9230136 (Pharmaceutics, 2022):

Experiments:
Format in all cases: cell-based, human
[1] = system: A549, MDA-MB-231, HeLa, HT-29 and Jurkat cancer cell lines; assay: Antiproliferative activity over the panel of cancer cell lines; conditions: mean over the five cancer cell lines; read-out: mean IC50 (antiproliferative activity)
Outline: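 HT-29 grown in RPMI-1640, A549, HeLa and MDA-MB-231 in DMEM, both with 10% FBS. Seeded cells treated after 24 h with 5-fold serial dilutions from 10 μM, in triplicate, for 72 h at 37 °C. Viability read by resazurin fluorescence (ex 535/em 600 nm) after 3–4 h.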

HeLa cells [2] = assay: ROS production (H2DCFDA); conditions: 10, 50 or 100 nM; 24 h
Procedure: The mitochondrial potential was evaluated in HeLa cells by flow cytometry using the cell membrane permeable cationic dye 5,5′,6,6′-tetrachloro-1,1′,3,3′-tetraethyl-imidacarbocyanine iodide (JC-1) (Molecular Probes) as described previously. The production of ROS was measured in HeLa cells by flow cytometry using 2′,7′-dichlorodihydrofluorescein diacetate (H2DCFDA) (Molecular Probes) as described previously.

HeLa cells [3] = assay: EdU cell proliferation assay; conditions: 25 or 50 nM; 24 h
Procedure: HeLa cells were seeded in a 6-well plate and, after a 24 h incubation, were treated with the desired compounds as indicated in the Biological Results and Discussion section. Cells were re-incubated for one day and then labeled with EdU (10 μM) for 3 h under cell culture conditions. Cells were harvested by centrifugation before proceeding with the fixation step using 3.7% formaldehyde. Next, permeabilization with 0.5% Triton X-100 was performed. The reaction cocktail was prepared and added to each well (100 μL/well) following the manufacturer’s instructions (EdU-Click 488, base click, Sigma-Aldrich. Milano Italy), and the plate was incubated at room temperature for 30 min in the dark. Cells were washed 2 times with phosphate-buffered saline (PBS) before reading samples with a Beckman Coulter Cytomics FC500 instrument (λex/λem = 496/516 nm).

Cc1cc(Nc2ccc(F)cc2)n2nc(NCCCc3ccccc3)nc2n1 [Compound 8q]
IC50 [1]: 83 nM | ROS production (HeLa cells [2]): significantly increased ROS production in a dose-dependent manner | EdU incorporation / cell proliferation (HeLa cells [3]): effective in reducing HeLa cell proliferation
